Among the test systems are NCI-H23 lung; DU-145 prostate; HT29 colon; MALME-3M melanoma; NCI-H522 lung; UACC-257 melanoma; PC-3 prostate; SNB-19 CNS; MDA-MB-435; SK-OV-3 ovarian.
What all share (experiment): NCI anticancer screen, dose series, 48 h

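Cells were grown in 96-well plates and exposed to each compound for 48 hours at five concentrations; endpoints were interpolated linearly between bracketing concentrations, or set to the highest concentration if not reached. The concentration for 50% growth inhibition is given as GI50. TGI: total growth inhibition.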

As to `C=C1C(=O)O[C@H]2[C@H]1CC/C(Cn1cc(-c3ccccc3)nn1)=C\CC[C@@]1(C)O[C@@H]21`, the GI50 was 5.38 µM in the experiment on NCI-H23 lung; 2.19 µM in the experiment with DU-145 prostate; 1.79 µM in the experiment on HT29 colon; 1.17 µM in the experiment with MALME-3M melanoma; 0.811 µM in the experiment on NCI-H522 lung; 3.78 µM in the experiment with UACC-257 melanoma. Moreover, the GI50 is 5.65 µM with PC-3 prostate, 7.87 µM in the experiment with SNB-19 CNS, 2.37 µM with MDA-MB-435 and 9.95 µM in the experiment with SK-OV-3 ovarian. In addition, the TGI is 12.4 µM with NCI-H23 lung; 7.92 µM in the experiment with DU-145 prostate; 6.3 µM in the experiment on HT29 colon; 2.84 µM in the experiment on MALME-3M melanoma; 1.66 µM with NCI-H522 lung; 10.5 µM with UACC-257 melanoma. Further, the TGI with PC-3 prostate came to 12 µM; with SNB-19 CNS it was 17 µM; in the experiment on MDA-MB-435, 9.18 µM; in the experiment on SK-OV-3 ovarian it was 17.9 µM.
`CCN(CC)CCCCCCCNc1c2ccc(Cl)cc2nc2ccc(OC)cc12`: the GI50 was 1.14 µM with NCI-H23 lung; 0.66 µM with DU-145 prostate; 0.203 µM in the experiment on HT29 colon; 2.05 µM in the experiment on MALME-3M melanoma; 1.2 µM in the experiment with NCI-H522 lung; 1.27 µM in the experiment on UACC-257 melanoma. In addition, the GI50 in the experiment on PC-3 prostate is 0.843 µM; in the experiment with SNB-19 CNS, 1.75 µM; in the experiment on MDA-MB-435, 1.43 µM; with SK-OV-3 ovarian, 1.41 µM. Further, the TGI turned out to be 2.84 µM with NCI-H23 lung; 2 µM in the experiment with DU-145 prostate; 0.604 µM with HT29 colon; 4.1 µM in the experiment on MALME-3M melanoma; 2.83 µM in the experiment on NCI-H522 lung; 3.08 µM in the experiment with UACC-257 melanoma. Moreover, the TGI with PC-3 prostate was 2.85 µM; in the experiment on SNB-19 CNS it was 5.84 µM; with MDA-MB-435, 3.16 µM; with SK-OV-3 ovarian, 3.58 µM.
As to `CCOC(=O)Oc1c(OC)cc(C(=O)O[C@@H]2C[C@@H]3CN4CCc5c([nH]c6cc(OC)ccc56)[C@H]4C[C@@H]3[C@H](C(=O)OC)[C@H]2OC)cc1OC`, the GI50 was 5.24 µM in the experiment on NCI-H23 lung; 13.5 µM in the experiment on DU-145 prostate; 2.32 µM in the experiment with HT29 colon; 6.74 µM in the experiment with MALME-3M melanoma; 5.18 µM in the experiment on NCI-H522 lung; 12.4 µM in the experiment with UACC-257 melanoma. Further, the GI50 was 4.92 µM with PC-3 prostate, 5.04 µM with SNB-19 CNS, 8.33 µM with MDA-MB-435 and 14.3 µM in the experiment with SK-OV-3 ovarian. For the same compound, the TGI with NCI-H23 lung is 21.8 µM; in the experiment with DU-145 prostate it was 95.8 µM; in the experiment on HT29 colon, 5.92 µM; in the experiment with MALME-3M melanoma, 27.1 µM; in the experiment on NCI-H522 lung, 18.7 µM; with UACC-257 melanoma, 30.4 µM. Further, the TGI in the experiment with PC-3 prostate was determined as 33.8 µM; with SNB-19 CNS, 20.9 µM; in the experiment with MDA-MB-435, 23.9 µM; in the experiment with SK-OV-3 ovarian, 27.4 µM.
Turning to `O=C(CCCn1ccnc1[N+](=O)[O-])NCCn1ccnc1`, the TGI in the experiment on NCI-H23 lung, in the experiment on DU-145 prostate, in the experiment on HT29 colon, in the experiment on MALME-3M melanoma, with NCI-H522 lung and in the experiment on UACC-257 melanoma was greater than 100 µM each time. Besides, the TGI in the experiment with PC-3 prostate, in the experiment on SNB-19 CNS, in the experiment on MDA-MB-435 and in the experiment on SK-OV-3 ovarian was greater than 100 µM in each case.
For the compound `O=C1c2ccccc2-c2c1c1ccccc1c(=O)n2CCCN1CCOCC1`, the GI50 in the experiment with NCI-H23 lung was 15.4 µM; in the experiment with DU-145 prostate, 10.1 µM; in the experiment with HT29 colon, greater than 100 µM; in the experiment on MALME-3M melanoma, 9.43 µM; in the experiment with NCI-H522 lung, 10.1 µM; in the experiment with UACC-257 melanoma it was greater than 100 µM. For the same compound, the GI50 in the experiment with PC-3 prostate was 26.2 µM; with SNB-19 CNS, 14.2 µM; with MDA-MB-435, greater than 100 µM; in the experiment with SK-OV-3 ovarian, 17.7 µM. Also, the TGI in the experiment on NCI-H23 lung was 41.5 µM; in the experiment with DU-145 prostate, greater than 82.6 µM; with HT29 colon it was greater than 100 µM; in the experiment on MALME-3M melanoma, 45.1 µM; with NCI-H522 lung, greater than 63.3 µM; with UACC-257 melanoma it was greater than 100 µM. Also, the TGI was greater than 100 µM in the experiment with PC-3 prostate, 39.1 µM in the experiment with SNB-19 CNS, greater than 100 µM with MDA-MB-435 and 45 µM in the experiment on SK-OV-3 ovarian.
`Cc1ccc2c(=O)c3cccc(CC(=O)O)c3oc2c1C`: the GI50 with NCI-H23 lung, in the experiment with DU-145 prostate, in the experiment with HT29 colon, in the experiment with MALME-3M melanoma, in the experiment with NCI-H522 lung and in the experiment with UACC-257 melanoma was greater than 100 µM each time. Besides, the GI50 in the experiment on PC-3 prostate, in the experiment on SNB-19 CNS, with MDA-MB-435 and with SK-OV-3 ovarian was greater than 100 µM each time. The TGI in the experiment on NCI-H23 lung, with DU-145 prostate, in the experiment on HT29 colon, in the experiment on MALME-3M melanoma, in the experiment on NCI-H522 lung and in the experiment on UACC-257 melanoma was greater than 100 µM throughout. Moreover, the TGI with PC-3 prostate, in the experiment on SNB-19 CNS, with MDA-MB-435 and in the experiment with SK-OV-3 ovarian was greater than 100 µM throughout.
Take `CCOC(CN=c1nc(N(C)C)ss1)OCC`: the TGI is 65.8 µM in the experiment on NCI-H23 lung; greater than 100 µM in the experiment with DU-145 prostate; 17.5 µM in the experiment with HT29 colon; 52.9 µM in the experiment on MALME-3M melanoma; 1.45 µM with NCI-H522 lung; 40.7 µM in the experiment with UACC-257 melanoma. The TGI was 32 µM with PC-3 prostate, greater than 77.4 µM with SNB-19 CNS, 32.4 µM in the experiment on MDA-MB-435 and greater than 100 µM in the experiment with SK-OV-3 ovarian.
For `Cc1ccc2c(N)c(C(=O)N[C@H]3CCc4cc(N5CC6CCC(C5)N6)ccc4C3)sc2n1`, the GI50 with NCI-H23 lung is 1.24 µM; in the experiment on DU-145 prostate, 0.165 µM; in the experiment on HT29 colon, 0.257 µM; in the experiment on MALME-3M melanoma it was 0.441 µM; in the experiment with NCI-H522 lung, 0.265 µM; in the experiment on UACC-257 melanoma, 0.501 µM. For the same compound, the GI50 in the experiment with PC-3 prostate was 0.676 µM; in the experiment on SNB-19 CNS, 0.325 µM; in the experiment with MDA-MB-435, 0.359 µM; in the experiment on SK-OV-3 ovarian, 0.422 µM. In addition, the TGI was 5.31 µM in the experiment on NCI-H23 lung; 1.48 µM with DU-145 prostate; 3.22 µM in the experiment with HT29 colon; 2.04 µM with MALME-3M melanoma; 1.59 µM with NCI-H522 lung; 2.84 µM in the experiment with UACC-257 melanoma. Moreover, the results for the TGI with SNB-19 CNS, with MDA-MB-435 and with SK-OV-3 ovarian were 2.49 µM, 2.34 µM and 2.99 µM, respectively.
As for `COc1ccc(/C=C\c2cc(OC)c(OC)c(OC)c2)cc1OCC(=O)Nc1nc2ccc(C(F)(F)F)cc2s1`, the GI50 in the experiment with NCI-H23 lung is 3.9 µM; in the experiment with DU-145 prostate, 2.51 µM; in the experiment with HT29 colon, 14.9 µM; in the experiment on MALME-3M melanoma, greater than 100 µM; with NCI-H522 lung, 2.89 µM; in the experiment on UACC-257 melanoma, 40 µM. The GI50 with PC-3 prostate was 4.32 µM; with SNB-19 CNS, 5.03 µM; with MDA-MB-435, 1.84 µM; with SK-OV-3 ovarian, 3.29 µM. The TGI with NCI-H23 lung was greater than 100 µM; in the experiment with DU-145 prostate, 6.56 µM; with HT29 colon, greater than 100 µM; in the experiment on MALME-3M melanoma, greater than 100 µM; with NCI-H522 lung it was 19.6 µM; in the experiment on UACC-257 melanoma it was greater than 100 µM. The TGI was greater than 100 µM in the experiment on PC-3 prostate, greater than 100 µM in the experiment with SNB-19 CNS, 5.91 µM with MDA-MB-435 and 17.2 µM with SK-OV-3 ovarian.
On to `CC(C)(O)C1OCC(C2CCC3(C)C4=CCC5C(C)(C)C(O)CCC5(C)C4CCC23C)CC1O` (centres undefined), for which the TGI in the experiment on NCI-H23 lung was 81.3 µM; in the experiment with DU-145 prostate it was 31.1 µM; in the experiment with HT29 colon, 25.7 µM; with MALME-3M melanoma, 39.5 µM; in the experiment on NCI-H522 lung, 23.6 µM; in the experiment on UACC-257 melanoma it was 39.3 µM. The TGI with PC-3 prostate amounted to 26.7 µM; with SNB-19 CNS, 36.9 µM; with MDA-MB-435, 28.8 µM; in the experiment with SK-OV-3 ovarian, 31.5 µM.
On to `O=[N+]([O-])/C=C/c1c[nH]c2ccccc12`, for which the GI50 was 15 µM in the experiment with NCI-H23 lung; 15.5 µM with DU-145 prostate; 19.5 µM in the experiment with HT29 colon; 19 µM in the experiment on MALME-3M melanoma; 14.8 µM in the experiment with NCI-H522 lung; 16.5 µM in the experiment with UACC-257 melanoma. Further, the GI50 with PC-3 prostate was 24.2 µM; with SNB-19 CNS it was 18.4 µM; with MDA-MB-435 it was 2.15 µM; with SK-OV-3 ovarian it was 15.2 µM. Moreover, the TGI in the experiment with NCI-H23 lung stood at 31 µM; in the experiment with DU-145 prostate, 32.5 µM; in the experiment with HT29 colon, 38.8 µM; in the experiment on MALME-3M melanoma, 35.7 µM; in the experiment with NCI-H522 lung, 28.9 µM; in the experiment on UACC-257 melanoma, 30.6 µM. Besides, the TGI with PC-3 prostate amounted to 64.8 µM; in the experiment with SNB-19 CNS, 35.4 µM; with MDA-MB-435, 5.06 µM; with SK-OV-3 ovarian, 29.1 µM.
With `C/C=C(\C)C(=O)O[C@H]1C=CC(=O)O[C@H]1CNC(=O)[C@H](C)O`, the GI50 is 22.1 µM in the experiment with NCI-H23 lung; 31.7 µM in the experiment with DU-145 prostate; 18.9 µM in the experiment on HT29 colon; 18.5 µM in the experiment with MALME-3M melanoma; 11.6 µM with NCI-H522 lung; 17.1 µM in the experiment on UACC-257 melanoma. The GI50 is 24.5 µM in the experiment with PC-3 prostate, 30.5 µM in the experiment on SNB-19 CNS, 20.1 µM in the experiment with MDA-MB-435 and 52.1 µM in the experiment on SK-OV-3 ovarian. Also, the TGI was 47.8 µM with NCI-H23 lung; greater than 100 µM in the experiment on DU-145 prostate; 42.6 µM with HT29 colon; 35.1 µM in the experiment with MALME-3M melanoma; 31 µM with NCI-H522 lung; 37.6 µM in the experiment on UACC-257 melanoma. The TGI with PC-3 prostate was 79.4 µM; with SNB-19 CNS, greater than 100 µM; in the experiment on MDA-MB-435 it was 44.7 µM; with SK-OV-3 ovarian, greater than 100 µM.

The values are drawn from PubChem BioAssay (NCI).
